How the values were obtained:
Format in all cases: in vivo, mice
4T1 tumors [1] = assay: Ultrasound shear wave elastography of tissue stiffness, bosentan dose response; details: 1 mg/kg daily bosentan i.p.; 4T1 breast tumors
Procedure: (§1) Mice bearing syngeneic, orthotopic triple negative breast cancer (TNBC) were treated with a range of sub-therapeutic doses of bosentan, from 0.2 mg/kg to 10 mg/kg of body weight. Orthotopic models for murine mammary tumors were generated by implantation of 5×10^4 4T1 or E0771 cancer cells in 40 μl of serum-free medium into the third mammary fat pad of 6-8-week-old BALB/c and C57BL/6 female mice, respectively. 4T1 (ATCC® CRL-2539TH) and E0771 (94A001, CH3 BioSystems) mouse breast adenocarcinoma cell lines were purchased form ATCC and CH3 BioSystems, respectively. The cells were maintained at 37° C./5% CO2 in Roswell Park Memorial Institute medium (RPMI-1640, LM-R1637, Biosera) supplemented with 10% fetal bovine serum (FBS, FB-1001H, biosera) and 1% antibiotics (A5955, Sigma). Bosentan (bosentan Hydrate (S3051, Selleckchem) was dissolved in ddH2O containing 2% DMSO (GK2245, Glentham Life Science), 30% PEG300 (S6704, Selleckchem) and 2% Tween 80 (S6702, Selleckchem)) 1 mg/kg, 5 mg/kg, 10 mg/kg or equal volume of diluent (control group) was administered by intraperitoneal injection (i.p.) once a day for 10 days, starting from once the tumor volumes reached an average size of 100 mm^3. Tumors were excised when they reached an average size of 500 mm^3. Tissue stiffness was then measured non-invasively and longitudinally using ultrasound elastography. […]

E0771 tumors [2] = assay: as above; details: 1 mg/kg daily bosentan i.p.; E0771 breast tumors
Procedure: as §1

E0771 tumors [3] = assay: Interstitial fluid pressure (IFP), wick-in-needle technique; details: 1 mg/kg bosentan
Procedure: as §1

E0771 tumors [4] = assay: Extracellular matrix staining (Picro Sirius red collagen, HABP immunofluorescence)
Procedure: as §1

4T1 tumors [5] = assay: Tumor volume over time, bosentan pre-treatment plus anti-PD-1/anti-CTLA-4 (Example 5); details: pre-treated with bosentan 1 mg/kg, then immunotherapy cocktail
Procedure: Syngeneic tumor models and treatment protocols. Orthotopic models for murine mammary tumors were generated by implantation of 5×10^4 4T1 cancer cells in 40 μL of serum-free medium into the third mammary fat pad of 6-8 weeks-old BALB/c mice. Mice were purchased from the Cyprus Institute of Neurology and Genetics and all in vivo experiments were conducted in accordance with the animal welfare regulations and guidelines of the Republic of Cyprus and the European Union (European Directive 2010/63/EE and Cyprus Legislation for the protection and welfare of animals, Laws 1994-2013) under a license acquired and approved (No CY/EXP/PR.L2/2018, CY/EXP/PR.L14/2019, CY/EXP/PR.L15/2019, CY/EXP/PR.L03/2020) by the Cyprus Veterinary Services committee, the Cyprus national authority for monitoring animal research for all academic institutions.
Tranilast at 200 mg/kg, bosentan at 1 mg/kg, or equal volume of diluent (control group) was administered by intraperitoneal injection (i.p.) once a day for 14 days, starting from once the tumor volumes reached an average size of 5 mm diameter. […]
Planar dimensions (x, y) of tumor were monitored every 2-3 days using a digital caliper and tumor volume was estimated from the volume of an ellipsoid and assuming that the third dimension, z, is equal to the sqrt(x y). […]

COc1ccccc1Oc1c(NS(=O)(=O)c2ccc(C(C)(C)C)cc2)nc(-c2ncccn2)nc1OCCO [bosentan, 4-tert-butyl-N-[6-(2-hydroxy-ethoxy)-5-(2-methoxy-phenoxy)-2-(pyrimidin-2-yl)pyrimidin-4-yl] benzenesulfonamide]
tissue stiffness (ultrasound elastography) (4T1 tumors [1]): reduced tissue stiffness
tissue stiffness (ultrasound elastography) (E0771 tumors [2]): reduced tissue stiffness
interstitial fluid pressure (E0771 tumors [3]): decrease in interstitial fluid pressure
collagen levels (Picro Sirius red staining) (E0771 tumors [4]): reduction of collagen levels
tumor volume as a function of time (4T1 tumors [5]): effectively stop further tumor growth

From patent US20240024317A1, “CANCER TREATMENT USING BOSENTAN IN COMBINATION WITH A CHECKPOINT INHIBITOR” (Materia Therapeutics Inc., priority 2020, published 2024)
